Tests used:
Experiment in all cases: biochemical
Set-up in all cases: species or system HEK293/K-562/placenta mixed human extract; Kinobeads chemoproteomic competition binding, quantified by TMT LC-MS/MS, dose response up to 20 uM
[1] = biological target: BRSK2 (Homo sapiens, UniProt Q8IWQ3)
[2] = biological target: CAMK2G (Homo sapiens, UniProt Q13555)
[3] = biological target: CSNK2B (Homo sapiens, UniProt P67870)
[4] = biological target: EPHB1 (Homo sapiens, UniProt P54762)
[5] = biological target: GAK (Homo sapiens, UniProt O14976)
[6] = biological target: JAK1 (Homo sapiens, UniProt P23458)
[7] = biological target: KIT (Homo sapiens, UniProt P10721)
[8] = biological target: MAP4K2 (Homo sapiens, UniProt Q12851)
MAP4K2, sequence (Q12851 whole entry): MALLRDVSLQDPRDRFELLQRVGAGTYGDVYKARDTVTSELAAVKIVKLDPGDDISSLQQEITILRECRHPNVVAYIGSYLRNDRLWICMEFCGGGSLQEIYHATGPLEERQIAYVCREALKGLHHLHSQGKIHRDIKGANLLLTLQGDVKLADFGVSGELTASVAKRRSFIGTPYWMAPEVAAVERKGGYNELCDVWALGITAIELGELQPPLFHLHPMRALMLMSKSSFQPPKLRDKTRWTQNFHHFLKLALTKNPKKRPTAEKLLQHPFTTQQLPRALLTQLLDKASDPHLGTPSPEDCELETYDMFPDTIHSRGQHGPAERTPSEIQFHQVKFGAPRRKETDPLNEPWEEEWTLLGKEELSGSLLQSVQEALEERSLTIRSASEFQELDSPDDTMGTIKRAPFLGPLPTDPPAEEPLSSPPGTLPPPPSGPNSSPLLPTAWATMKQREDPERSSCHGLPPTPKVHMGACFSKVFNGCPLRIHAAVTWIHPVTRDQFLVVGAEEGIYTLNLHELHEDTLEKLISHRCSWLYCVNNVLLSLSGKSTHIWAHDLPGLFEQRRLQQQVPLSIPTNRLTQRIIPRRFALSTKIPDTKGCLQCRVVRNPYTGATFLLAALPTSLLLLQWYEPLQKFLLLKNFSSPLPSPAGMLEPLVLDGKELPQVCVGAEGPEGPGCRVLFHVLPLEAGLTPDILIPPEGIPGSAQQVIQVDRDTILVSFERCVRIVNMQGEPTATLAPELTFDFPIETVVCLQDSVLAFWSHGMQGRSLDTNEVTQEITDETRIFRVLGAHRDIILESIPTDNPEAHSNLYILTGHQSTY

[9] = biological target: MYLK (Homo sapiens, UniProt Q15746)
[10] = biological target: NEK1 (Homo sapiens, UniProt Q96PY6)
[11] = biological target: PDIK1L (Homo sapiens, UniProt Q8N165)
[12] = biological target: PIK3C3 (Homo sapiens, UniProt Q8NEB9)
[13] = biological target: PIM1 (Homo sapiens, UniProt P11309)
[14] = biological target: PIM2 (Homo sapiens, UniProt Q9P1W9)
[15] = biological target: PIM3 (Homo sapiens, UniProt Q86V86)
[16] = biological target: PLK4 (Homo sapiens, UniProt O00444)
PLK4, sequence (O00444 whole entry): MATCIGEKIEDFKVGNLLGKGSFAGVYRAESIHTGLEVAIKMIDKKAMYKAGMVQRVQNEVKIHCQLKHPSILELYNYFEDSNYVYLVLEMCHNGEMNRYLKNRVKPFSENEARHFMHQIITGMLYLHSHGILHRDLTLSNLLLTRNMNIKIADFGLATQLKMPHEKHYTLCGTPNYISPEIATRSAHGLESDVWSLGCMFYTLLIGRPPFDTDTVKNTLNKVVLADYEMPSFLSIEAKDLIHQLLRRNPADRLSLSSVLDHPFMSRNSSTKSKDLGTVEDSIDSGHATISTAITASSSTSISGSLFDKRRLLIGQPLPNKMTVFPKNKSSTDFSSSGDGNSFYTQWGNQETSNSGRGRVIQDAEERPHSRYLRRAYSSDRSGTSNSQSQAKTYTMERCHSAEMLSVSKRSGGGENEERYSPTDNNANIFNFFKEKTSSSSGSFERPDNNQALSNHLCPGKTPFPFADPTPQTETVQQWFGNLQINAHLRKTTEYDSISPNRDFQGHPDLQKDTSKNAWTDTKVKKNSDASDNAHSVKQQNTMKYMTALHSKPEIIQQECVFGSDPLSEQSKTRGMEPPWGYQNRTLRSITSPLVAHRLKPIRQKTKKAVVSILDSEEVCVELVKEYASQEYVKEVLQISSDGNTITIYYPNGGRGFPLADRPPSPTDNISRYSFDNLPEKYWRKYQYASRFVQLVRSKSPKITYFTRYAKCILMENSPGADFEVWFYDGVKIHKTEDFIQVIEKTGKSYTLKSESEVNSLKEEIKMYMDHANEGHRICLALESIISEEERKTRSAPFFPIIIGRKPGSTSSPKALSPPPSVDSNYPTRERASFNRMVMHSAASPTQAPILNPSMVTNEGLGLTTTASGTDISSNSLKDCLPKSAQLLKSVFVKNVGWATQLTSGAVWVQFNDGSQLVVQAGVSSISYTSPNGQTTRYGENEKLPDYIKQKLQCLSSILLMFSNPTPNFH

[17] = biological target: RPS6KA1 (Homo sapiens, UniProt Q15418)
[18] = biological target: STK16 (Homo sapiens, UniProt O75716)
[19] = biological target: STK38L (Homo sapiens, UniProt Q9Y2H1)
STK38L, sequence (Q9Y2H1 whole entry): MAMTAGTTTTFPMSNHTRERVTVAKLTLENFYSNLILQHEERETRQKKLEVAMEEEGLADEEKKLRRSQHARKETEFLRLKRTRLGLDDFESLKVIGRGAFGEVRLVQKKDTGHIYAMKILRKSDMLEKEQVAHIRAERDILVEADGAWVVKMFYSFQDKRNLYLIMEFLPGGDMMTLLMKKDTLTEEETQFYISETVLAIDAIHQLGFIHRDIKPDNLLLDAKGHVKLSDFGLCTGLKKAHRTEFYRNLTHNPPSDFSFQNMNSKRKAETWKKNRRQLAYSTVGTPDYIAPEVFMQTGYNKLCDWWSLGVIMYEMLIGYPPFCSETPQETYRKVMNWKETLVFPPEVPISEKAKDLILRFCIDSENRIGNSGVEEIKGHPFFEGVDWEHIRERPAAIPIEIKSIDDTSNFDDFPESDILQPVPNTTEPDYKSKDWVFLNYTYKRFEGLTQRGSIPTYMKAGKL

[20] = biological target: TEC (Homo sapiens, UniProt P42680)
TEC, sequence (P42680 whole entry): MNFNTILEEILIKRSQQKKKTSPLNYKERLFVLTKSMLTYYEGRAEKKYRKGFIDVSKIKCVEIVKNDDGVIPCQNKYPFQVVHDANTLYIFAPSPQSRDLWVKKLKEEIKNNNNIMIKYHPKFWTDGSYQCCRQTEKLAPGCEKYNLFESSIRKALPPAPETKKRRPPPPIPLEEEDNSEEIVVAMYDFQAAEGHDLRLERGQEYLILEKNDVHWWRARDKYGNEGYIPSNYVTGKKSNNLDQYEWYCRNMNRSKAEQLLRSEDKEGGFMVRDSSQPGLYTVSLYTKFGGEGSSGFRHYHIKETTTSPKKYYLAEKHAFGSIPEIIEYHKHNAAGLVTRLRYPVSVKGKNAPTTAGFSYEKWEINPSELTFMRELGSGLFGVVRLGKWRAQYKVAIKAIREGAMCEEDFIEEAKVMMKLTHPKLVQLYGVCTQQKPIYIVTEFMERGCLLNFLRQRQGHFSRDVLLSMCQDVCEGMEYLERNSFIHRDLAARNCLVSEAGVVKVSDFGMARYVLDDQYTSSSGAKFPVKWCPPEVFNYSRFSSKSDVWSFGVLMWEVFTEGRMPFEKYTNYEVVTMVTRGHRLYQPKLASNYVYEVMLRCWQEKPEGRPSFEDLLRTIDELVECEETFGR

[21] = biological target: WNK4 (Homo sapiens, UniProt Q96J92)
WNK4, sequence (Q96J92 whole entry): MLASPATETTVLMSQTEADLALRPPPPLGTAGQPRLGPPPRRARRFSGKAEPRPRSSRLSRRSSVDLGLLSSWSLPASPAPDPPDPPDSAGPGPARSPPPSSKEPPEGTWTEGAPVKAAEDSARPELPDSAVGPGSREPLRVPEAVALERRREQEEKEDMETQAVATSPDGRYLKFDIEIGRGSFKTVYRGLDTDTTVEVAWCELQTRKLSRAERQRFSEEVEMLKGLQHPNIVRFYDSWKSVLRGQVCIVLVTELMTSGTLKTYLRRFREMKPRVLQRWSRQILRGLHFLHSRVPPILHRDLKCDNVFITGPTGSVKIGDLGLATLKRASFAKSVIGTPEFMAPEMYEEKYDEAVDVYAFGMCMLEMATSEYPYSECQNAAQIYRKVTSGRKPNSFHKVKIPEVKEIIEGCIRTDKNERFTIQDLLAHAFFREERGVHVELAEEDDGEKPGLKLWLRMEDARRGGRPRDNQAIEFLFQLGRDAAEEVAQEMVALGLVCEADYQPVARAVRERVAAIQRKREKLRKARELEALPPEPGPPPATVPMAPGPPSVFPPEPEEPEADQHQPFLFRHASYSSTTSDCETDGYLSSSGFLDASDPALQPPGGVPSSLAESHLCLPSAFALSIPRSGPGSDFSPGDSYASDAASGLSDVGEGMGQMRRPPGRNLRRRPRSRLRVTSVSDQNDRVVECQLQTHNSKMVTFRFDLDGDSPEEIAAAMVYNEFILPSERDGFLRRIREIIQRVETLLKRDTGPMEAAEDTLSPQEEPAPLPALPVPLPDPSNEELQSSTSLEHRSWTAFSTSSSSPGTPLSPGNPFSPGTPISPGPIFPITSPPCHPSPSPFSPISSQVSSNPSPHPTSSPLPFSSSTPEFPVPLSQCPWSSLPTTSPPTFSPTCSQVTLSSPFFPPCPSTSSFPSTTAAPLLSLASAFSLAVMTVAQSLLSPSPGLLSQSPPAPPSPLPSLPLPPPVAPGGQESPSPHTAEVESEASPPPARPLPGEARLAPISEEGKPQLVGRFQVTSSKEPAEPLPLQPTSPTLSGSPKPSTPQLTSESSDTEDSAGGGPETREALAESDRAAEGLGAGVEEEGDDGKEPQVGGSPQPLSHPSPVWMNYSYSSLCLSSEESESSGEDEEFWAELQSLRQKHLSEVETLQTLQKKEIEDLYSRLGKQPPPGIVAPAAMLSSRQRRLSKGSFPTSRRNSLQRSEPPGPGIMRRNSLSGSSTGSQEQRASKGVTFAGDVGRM

CAMK2G, sequence (Q13555 whole entry): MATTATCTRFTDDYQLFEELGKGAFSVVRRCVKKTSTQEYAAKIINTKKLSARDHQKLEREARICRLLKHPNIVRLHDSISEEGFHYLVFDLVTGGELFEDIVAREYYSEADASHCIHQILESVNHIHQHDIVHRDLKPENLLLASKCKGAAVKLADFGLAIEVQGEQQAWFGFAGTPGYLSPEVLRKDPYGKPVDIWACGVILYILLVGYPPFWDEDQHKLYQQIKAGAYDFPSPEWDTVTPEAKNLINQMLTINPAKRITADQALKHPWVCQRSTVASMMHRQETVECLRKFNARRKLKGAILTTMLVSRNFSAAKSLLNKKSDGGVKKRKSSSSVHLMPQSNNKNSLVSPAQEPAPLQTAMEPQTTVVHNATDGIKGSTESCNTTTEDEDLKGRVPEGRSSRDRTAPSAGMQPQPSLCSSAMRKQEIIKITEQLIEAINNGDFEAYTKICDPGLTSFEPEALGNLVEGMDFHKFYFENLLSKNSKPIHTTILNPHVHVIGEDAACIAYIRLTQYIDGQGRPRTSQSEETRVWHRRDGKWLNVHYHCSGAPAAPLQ
CSNK2B, sequence (P67870 whole entry): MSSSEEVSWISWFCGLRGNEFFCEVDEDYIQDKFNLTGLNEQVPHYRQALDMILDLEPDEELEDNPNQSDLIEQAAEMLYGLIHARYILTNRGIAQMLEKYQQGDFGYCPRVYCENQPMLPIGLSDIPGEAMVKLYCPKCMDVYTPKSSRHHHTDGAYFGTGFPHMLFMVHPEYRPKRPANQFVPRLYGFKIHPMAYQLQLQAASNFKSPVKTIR

In the case of COc1ccccc1-c1n[nH]c2nc(N[C@H]3CC[C@H](NS(=O)(=O)CCC(F)(F)F)CC3)nc(OC)c12 [compound 31, 3,3,3-Trifluoro-N-(trans-4-((4-methoxy-3-(2-methoxyphenyl)-1H-pyrazolo[3,4-d]pyrimidin-6-yl)amino)cyclohexyl)propane-1-sulfonamide], the IC50 [1] is reported as ≥ 20 µM, the IC50 [2] is reported as ≥ 20 µM and the IC50 [3] is reported as ≥ 20 µM. The IC50 [4] was ≥ 20 µM, the IC50 [5] was 9.9 µM and the IC50 [6] was ≥ 20 µM. For the same compound, the IC50 [7] was ≥ 20 µM, the IC50 [8] was ≥ 20 µM and the IC50 [9] was ≥ 20 µM. The IC50 [10] was ≥ 20 µM, the IC50 [11] was ≥ 20 µM and the IC50 [12] was ≥ 20 µM. The IC50 [13] was ≥ 20 µM, the IC50 [14] was ≥ 20 µM and the IC50 [15] was ≥ 20 µM. The IC50 [16] was ≥ 20 µM, the IC50 [17] was ≥ 20 µM and the IC50 [18] was ≥ 20 µM. For the same compound, the IC50 [19] was ≥ 20 µM, the IC50 [20] was ≥ 20 µM and the IC50 [21] was ≥ 20 µM.
